Series [1] can be described thus: solid state stability: storage at 25° C./60% RH and 40° C./75% RH for 1 week, XRPD and HPLC purity. In kind it is physicochemical. To be noted: for Purity (area %): HPLC purity; for Form change: XRPD; for HPLC purity change after storage: 40° C./75% RH for 1 week. The method, then:
For XRPD analysis, Empyrean X-ray powder diffractometer from Malvern Panalytical was used. Sample was spread on the middle of a zero-background Si holder.
XRPD and HPLC purity was performed for stability samples to assess the physical and chemical stability.

Series [2] in a line: hygroscopicity by DVS. In kind it is physicochemical. The method, then:
Hygroscopicity of Freeform Form A, HCl Form A, Besylate Form B, and Gentisate Form A was evaluated by DVS.

For series [3], the target named is sodium-dependent serotonin transporter (SERT) (Homo sapiens, UniProt P31645). To be noted: reported for the naturally occurring compound from Sceletium tortuosum; cited from earlier work.
A short description of series [4]: solubility of Freeform Form A in solvents. In kind it is physicochemical. An excerpt: Freeform Form A was a gum material. The material had the solubility shown below:
The nature of series [5]: kinetic solubility in H2O and bio-relevant media (SGF, FaSSIF, FeSSIF) at 37° C. In kind it is physicochemical. The note with it: thermodynamic from solid; for solubility: 37 °C, read-out: observed solubility; for solubility kinetic / solubility at 1 h / solubility at 2 h / solubility at 4 h / solubility at 24 h: 37° C.; for solubility kinetic: at 1, 2, 4 and 24 hrs; for solubility at 1 h / solubility at 2 h / solubility at 4 h / solubility at 24 h: read-out: S: Solubility (mg/mL), calculated by freebase. As for the experimental part:
• 1. Add about 40 mg of samples and 4 mL of corresponding medium into a 5-mL glass vial. The loading concentration was ˜10 mg/mL (calculated by freebase). • 2. Roll at 37° C. (˜25 rpm). Sample at 1, 2, 4 and 24 hrs. • 3. At each time-point, sample 0.8 mL of solution or suspension into a centrifuge tube prior to centrifugation (12000 rpm, 37° C., 5 min) and filtration through 0.45 μm PTFE membrane. • 4. Test pH and concentration for the filtrate. Analyze residual solids by XRPD.

≈ marks a conversion by molar mass, not a printed value. Entries after “also recorded” stand apart in the source; their conditions may differ. Where two headings read alike, the source gives them in different places.

sodium-dependent serotonin transporter (SERT), sequence (P31645 whole entry, species assumed): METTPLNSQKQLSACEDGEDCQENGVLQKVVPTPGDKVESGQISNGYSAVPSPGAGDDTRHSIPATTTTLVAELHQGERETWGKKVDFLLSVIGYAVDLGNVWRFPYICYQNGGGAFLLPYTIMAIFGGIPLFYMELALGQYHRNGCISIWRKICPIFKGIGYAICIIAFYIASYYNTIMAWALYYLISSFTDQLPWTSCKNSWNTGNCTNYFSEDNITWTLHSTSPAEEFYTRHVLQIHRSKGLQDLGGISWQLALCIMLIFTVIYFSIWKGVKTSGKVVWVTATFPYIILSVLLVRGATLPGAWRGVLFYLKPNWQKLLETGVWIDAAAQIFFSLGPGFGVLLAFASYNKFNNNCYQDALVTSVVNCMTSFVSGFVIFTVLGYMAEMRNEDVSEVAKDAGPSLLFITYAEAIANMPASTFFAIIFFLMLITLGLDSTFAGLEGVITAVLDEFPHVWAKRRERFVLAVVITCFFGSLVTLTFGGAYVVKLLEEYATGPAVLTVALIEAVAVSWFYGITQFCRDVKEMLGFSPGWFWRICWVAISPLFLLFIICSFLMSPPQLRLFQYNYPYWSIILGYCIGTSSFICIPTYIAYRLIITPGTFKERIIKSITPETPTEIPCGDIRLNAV

As to `COc1ccc(C23CCC(=O)CC2N(C)CC3)cc1OC.Cl` (stereo not shown) [HCl Form A], in series [1] (25° C./60% RH/open/1 week), the “form change by XRPD after storage” value was “no form change”, the “Purity (area %)” value amounted to 97.06 area % and the Form change entry is “No”. Also, the “HPLC purity change after storage” value in series [1] is given as “slight purity decrease”. For the same compound, in series [1] (40° C./75% RH/open/1 week), the “form change by XRPD after storage” value is on record as “no form change”, the “Purity (area %)” value is 97.00 area % and the Form change result is “No”. Moreover, the “Purity (area %)” value in series [1] (Initial) is listed as 97.15 area %. In series [2] (DVS), the “Water uptake at 25° C./80% RH (wt %)” value is 0.72 wt % and the “water uptake at 25° C./80% RH” value is given as 0.72%. In series [2] (DVS, 95% RH), the “water uptake at 95% RH” value turned out to be 18.46%. Moreover, the “Form change by XRPD after DVS test” value in series [2] is listed as “No form change”. Besides, in series [2] (listed as HCl salt Form A), the “Form change by XRPD after DVS test” value is “No form change and No”.
With `COc1ccc([C@@]23CCC(=O)C[C@@H]2N(C)CC3)cc1OC.O=S(=O)(O)c1ccccc1` [Besylate Form B], in series [1] (25° C./60% RH/open/1 week), the “form change by XRPD after storage” value is “no form change”, the “Purity (area %)” value worked out at 97.16 area % and the Form change result is reported as “No”. The “HPLC purity change after storage” value in series [1] is on record as “slight purity decrease”. For the same compound, in series [1] (40° C./75% RH/open/1 week), the “form change by XRPD after storage” value is listed as “no form change”, the “Purity (area %)” value is listed as 97.12 area % and the Form change result is reported as “No”. The “Purity (area %)” value in series [1] (Initial) turned out to be 97.21 area %. In addition, in series [2] (DVS), the “Water uptake at 25° C./80% RH (wt %)” value is 0.32 wt % and the “water uptake at 25° C./80% RH” value came out at 0.32%. The “Form change by XRPD after DVS test” value in series [2] is “No form change and No”.
In the case of `COc1ccc([C@@]23CCC(=O)C[C@@H]2N(C)CC3)cc1OC` [Compound 1, 3a-(3,4-dimethoxyphenyl)-octahydro-1-methyl-6H-indol-6-one], the “serotonin (5-HT) uptake inhibitory activity” value in series [3] is on record as “serotonin (5-HT) uptake inhibitory activity”.
Consider `COc1ccc([C@@]23CCC(=O)C[C@@H]2N(C)CC3)cc1OC.O=C(O)c1cc(O)ccc1O` [Gentisate Form A], for which, in series [1] (25° C./60% RH/open/1 week), the “form change by XRPD after storage” value is listed as “no form change”, the “Purity (area %)” value is 97.18 area % and the Form change result is “No”. In series [1], the “HPLC purity change after storage” value is “slight purity decrease”. Besides, in series [1] (40° C./75% RH/open/1 week), the “form change by XRPD after storage” value was “no form change”, the “Purity (area %)” value stood at 97.11 area % and the Form change entry is “No”. Further, in series [1] (Initial), the “Purity (area %)” value stood at 97.22 area %. Also, in series [2] (DVS), the “Water uptake at 25° C./80% RH (wt %)” value was determined as 0.17 wt % and the “water uptake at 25° C./80% RH” value was 0.17%. The “Form change by XRPD after DVS test” value in series [2] is “No form change and No”.
What is called solubility (kinetic) is the concentration staying in solution when a stock, usually in DMSO, is diluted into the medium. As for `COc1ccc([C@@]23CCC(=O)C[C@@H]2N(C)CC3)cc1OC` [Freeform Form A], the solubility in series [4] (1,4-Dioxane, organic solvent or mixture) was greater than 40000 µg/mL; in series [4] (2-MeTHF, organic solvent or mixture), greater than 40000 µg/mL; in series [4] (ACN, organic solvent or mixture) it was greater than 44000 µg/mL; in series [4] (Acetone, organic solvent or mixture), greater than 40000 µg/mL; in series [4] (CPME, organic solvent or mixture) it was greater than 40000 µg/mL; in series [4] (DCM, organic solvent or mixture) it was greater than 42000 µg/mL. For the same compound, the solubility is 19000 to 38000 µg/mL (≈ 65.7 to 131 mM) in series [4] (EtOAc, organic solvent or mixture); greater than 42000 µg/mL in series [4] (EtOH, organic solvent or mixture); greater than 42000 µg/mL in series [4] (H2O, water); greater than 38000 µg/mL in series [4] (IPA, organic solvent or mixture); greater than 36000 µg/mL in series [4] (IPAc, organic solvent or mixture); greater than 38000 µg/mL in series [4] (MIBK, organic solvent or mixture). Further, the solubility is greater than 40000 µg/mL in series [4] (MTBE, organic solvent or mixture); greater than 36000 µg/mL in series [4] (MeOH, organic solvent or mixture); greater than 44000 µg/mL in series [4] (THF, organic solvent or mixture); greater than 8300 µg/mL in series [5] (simulated gastric fluid, in SGF); greater than 8300 µg/mL in series [5] (in FaSSIF); greater than 8300 µg/mL in series [5] (in FeSSIF). For the same compound, the solubility in series [5] (water, in H2O) was greater than 8300 µg/mL. The “form change by XRPD after storage” value in series [1] (25° C./60% RH/open/1 week) and in series [1] (40° C./75% RH/open/1 week) was “amorphous” each time. In addition, the “Purity (area %)” value is 98.14 area % in series [1] (25° C./60% RH/open/1 week), 98.01 area % in series [1] (40° C./75% RH/open/1 week) and 98.15 area % in series [1] (Initial). The Form change result in series [1] (25° C./60% RH/open/1 week) and in series [1] (40° C./75% RH/open/1 week) was “Amorphous” each time. Besides, the “HPLC purity change after storage” value in series [1] is reported as “slight purity decrease”. Further, the “Form change by XRPD after DVS test” value in series [2] is recorded as “amorphous; also recorded: Amorphous*”. In addition, the “behaviour during DVS test” value in series [2] (during DVS test) is listed as “deliquesced”. Further, the solubility (kinetic) in series [5] (simulated gastric fluid, SGF) was greater than 8300 µg/mL; in series [5] (FaSSIF), greater than 8300 µg/mL; in series [5] (FeSSIF) it was greater than 8300 µg/mL; in series [5] (water, H2O) it was greater than 8300 µg/mL. For the same compound, the solubility at 1 h was greater than 8.6 mg/mL in series [5] (simulated gastric fluid, SGF); greater than 8.7 mg/mL in series [5] (FaSSIF); greater than 8.7 mg/mL in series [5] (FeSSIF); greater than 9.1 mg/mL in series [5] (water, H2O). Further, the solubility at 2 h was greater than 9.2 mg/mL in series [5] (simulated gastric fluid, SGF); greater than 8.7 mg/mL in series [5] (FaSSIF); greater than 9.8 mg/mL in series [5] (FeSSIF); greater than 9.3 mg/mL in series [5] (water, H2O). Further, the solubility at 4 h in series [5] (simulated gastric fluid, SGF) is greater than 8.4 mg/mL; in series [5] (FaSSIF), greater than 8.3 mg/mL; in series [5] (FeSSIF), greater than 9.1 mg/mL; in series [5] (water, H2O) it was greater than 9.4 mg/mL. The solubility at 24 h in series [5] (simulated gastric fluid, SGF) is greater than 8.7 mg/mL; in series [5] (FaSSIF), greater than 8.5 mg/mL; in series [5] (FeSSIF), greater than 9.9 mg/mL; in series [5] (water, H2O), greater than 9.3 mg/mL.

Values taken from US20250026718A1, “SOLID FORMS OF MESEMBRINE AND THERAPEUTIC USES THEREOF” (Sensorium Therapeutics, Inc., priority 2022, published 2025).
